US20260008760A1, “DIPEPTIDYL PEPTIDASE 1 INHIBITORS AND USES THEREOF” (Insmed Incorporated, priority 2024, published 2026)
Several values for one entry are separate records, joined by “and”; a condition that tells them apart may be missing. Identical values can stand only once. Like-named read-outs stand apart in the source and are kept apart here.

Legend:
DPP1 in HL-60 cells [1] = biological target: T1, DPP1 in HL-60 cells (Homo sapiens, UniProt P53634); experiment: DPP1 Cell Single-Point Percent Inhibition Testing; type: cell-based; set-up: host or cells: HL-60 cells; conditions: final compound concentration 5 nM, n = 1
T1 sequence (P53634 25-463): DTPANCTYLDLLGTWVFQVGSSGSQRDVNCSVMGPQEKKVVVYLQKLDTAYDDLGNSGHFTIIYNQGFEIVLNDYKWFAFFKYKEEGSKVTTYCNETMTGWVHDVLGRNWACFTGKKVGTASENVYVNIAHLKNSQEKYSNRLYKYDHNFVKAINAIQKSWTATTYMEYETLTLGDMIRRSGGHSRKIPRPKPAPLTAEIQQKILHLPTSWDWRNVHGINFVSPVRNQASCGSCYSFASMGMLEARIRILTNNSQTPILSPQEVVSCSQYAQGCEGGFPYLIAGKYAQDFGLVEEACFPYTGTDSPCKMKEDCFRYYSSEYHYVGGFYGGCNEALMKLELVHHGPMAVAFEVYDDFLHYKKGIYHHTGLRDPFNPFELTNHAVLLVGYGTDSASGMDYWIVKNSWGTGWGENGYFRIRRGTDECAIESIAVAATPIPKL
In short: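 HL-60 cells in unsupplemented RPMI preincubated 60 min at 37 °C with test article (5 nM final, 0.1% DMSO), then given cell-permeable H-Gly-Phe-AFC (100 μM final) for 30 min. Fluorescence at 400/505 nm; percent inhibition versus vehicle after subtracting cell-free background and 10 μM brensocatib non-specific signal.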

human DPP1 enzyme [2] = biological target: T2, human DPP1 enzyme (Homo sapiens, UniProt P53634); experiment: Human DPP1 Enzyme IC50 Assay; type: biochemical; set-up: was first proteolytically processed into its mature form using recombinant human cathepsin L; purchased R&D Systems
In short: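 IC50 came from a four-parameter fit of activity relative to no-compound control, with fluorescence (Ex 350/Em 450 nm) read every 5 min for 90 min at 37 °C using 400 μM final H-Gly-Arg-AMC. Cathepsin L-matured human recombinant DPP1 was preincubated 10 min with compound at pH 6.0 (MES, DTT, 1% DMSO).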
Target sequence in this assay (P53634 25-134 limits assumed): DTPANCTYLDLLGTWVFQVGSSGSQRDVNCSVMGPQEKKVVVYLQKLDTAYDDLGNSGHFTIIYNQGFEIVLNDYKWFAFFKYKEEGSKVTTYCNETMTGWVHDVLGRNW
Target sequence in this assay (P53634 231-394 limits assumed): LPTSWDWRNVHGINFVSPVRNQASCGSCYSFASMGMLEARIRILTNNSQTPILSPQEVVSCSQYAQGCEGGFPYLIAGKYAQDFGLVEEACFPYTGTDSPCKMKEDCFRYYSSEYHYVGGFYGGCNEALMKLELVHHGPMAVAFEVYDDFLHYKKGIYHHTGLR
Target sequence in this assay (P53634 395-463 limits assumed): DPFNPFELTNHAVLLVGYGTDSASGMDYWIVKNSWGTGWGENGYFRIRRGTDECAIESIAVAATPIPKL

DPP1 in HL-60 cells [3] = biological target: T1, DPP1 in HL-60 cells; experiment: DPP1 Cell IC50 assay; type: cell-based; set-up: host or cells: HL-60 cells; conditions: 60 min pre-incubation, H-Gly-Phe-AFC substrate, average of n runs
In short: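 Intracellular DPP1 activity read as AFC fluorescence (Ex/Em 400/505 nm) after 30 min with H-Gly-Phe-AFC (500 μM stock), following 60 min compound pre-incubation at 37° C with HL-60 cells at 5×10^5 live cells per mL in PBS. IC50 by 4-parameter fit against DMSO-only controls.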

human DPP1 enzyme [4] = biological target: T2, human DPP1 enzyme; experiment: Human DPP1 Enzyme Single-Point Percent Inhibition Testing (HL-60 lysate); type: biochemical; set-up: A crude lysate of HL-60 cells (ATCC; Manassas, VA) was used as a source of human DPP1 enzyme; host or cells: HL-60 cells (crude lysate); conditions: final compound concentration of 10 nM, 400 μM H-Gly-Arg-AMC, n = 1
In short: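 Enzyme source was HL-60 cell lysate in MES pH 6.0 buffer with NaCl and DTT, pre-incubated 10 min at 37° C with 10 nM compound (final, 1% DMSO). Cleavage of 400 μM H-Gly-Arg-AMC was followed at 350/450 nm over 90 min at 37° C, and percent inhibition was taken against vehicle wells.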
Target sequence in this assay (P53634 25-463): as the sequence (P53634 25-463) above

[5] = activated recombinant human DPP1, 400 μM H-Gly-Arg-AMC, 10 minutes pre-incubation at 37° C., pH 6.0, average of n runs, read-out: Avg. IC50 (Human DPP1 enzyme IC50 value ranges)
[6] = read-out: Avg. IC50 (DPP1 Cell IC50 value ranges)
[7] = Avg. IC50 (DPP1 Cell IC50 value ranges)

SMILES	inhibition at 0.005 µM (DPP1 in HL-60 cells [1]) [%]	IC50 (human DPP1 enzyme [2]; [5])	IC50 (DPP1 in HL-60 cells [3]; [6])	inhibition at 0.01 µM (human DPP1 enzyme [4]) [%]	IC50 (human DPP1 enzyme [2]) [nM]	IC50 (DPP1 in HL-60 cells [3]; [7]) [nM]
N#C[C@H](Cc1ccc(-c2ccc(S(=O)(=O)N3CCC3)cc2)cc1)NC(=O)[C@@H]1CNCCCO1 [Compound 19, (S)—N—((S)-2-(4′-(azetidin-1-ylsulfonyl)-[1,1′-biphenyl]-4-yl)-1-cyanoethyl)-1,4-oxazepane-2-carboxamide]	≤ 76.5	> 15 nM	> 2.5 nM	≤ 40	–	–
N#C[C@H](Cc1cc2c(cc1F)-c1cc3c(cc1CO2)COC31CCN(C2COC2)CC1)NC(=O)[C@@H]1CNCCCCO1 [Compound C32]	≤ 76.5	< 5 nM	> 2.5 nM	≥ 66.7	–	–
C[C@@H]1NC[C@@H](C(=O)N[C@H](C#N)Cc2ccc(-c3ccc4cnn(C)c4c3)cc2F)OC[C@@H]1O [Compound H31]	≤ 76.5	5 to 15 nM and > 15 nM	1 to 2.5 nM	40 to 66.7	–	–
CN1CC[C@]2(C1)C(=O)OCc1ccc(-c3ccc(C[C@@H](C#N)NC(=O)[C@@H]4CNCCCO4)cc3)cc12 [Compound I2]	≤ 76.5	5 to 15 nM	> 2.5 nM	40 to 66.7	–	–
COC1CNC[C@@H](C(=O)N[C@H](C#N)Cc2ccc(-c3ccc4nnn(C)c4c3)cc2)OC1 (stereo partly drawn) [Compound H12]	≤ 76.5	< 5 nM	> 2.5 nM and 1 to 2.5 nM	≥ 66.7	–	–
N#C[C@H](Cc1ccc(-c2ccn3ccnc3c2)cc1)NC(=O)[C@@H]1CNCCCO1 [Compound A142]	≤ 76.5	> 15 nM	> 2.5 nM	≤ 40	–	–
CCCN1CCC2(CC1)SCCc1ccc(-c3ccc(C[C@@H](C#N)NC(=O)[C@@H]4CNCCCO4)cc3)cc12 [Compound I3]	≤ 76.5	5 to 15 nM	> 2.5 nM	≥ 66.7	–	–
Cn1c(=O)oc2cc3c(cc21)-c1cc(F)c(C[C@@H](C#N)NC(=O)[C@@H]2CNCCCCO2)cc1SC3 [Compound C8]	≤ 76.5	< 5 nM	1 to 2.5 nM	≥ 66.7	–	–
CO[C@@H]1CCNC[C@@H](C(=O)N[C@H](C#N)Cc2ccc(-c3ccc4cnn(C)c4c3)cc2)OC1 [Compound H5]	76.5 to 93.9	5 to 15 nM	1 to 2.5 nM	≥ 66.7	–	–
N#Cc1ccc2c(c1)-c1cc(F)c(CC(C#N)NC(=O)[C@@H]3CNCCCO3)cc1OC2 (stereo partly drawn) [Compound B33]	≤ 76.5	–	–	≤ 40	> 15	> 2.5
CO[C@@H]1CCNC[C@@H](C(=O)N[C@H](C#N)Cc2ccc(-c3ccc4c(c3)C3(CCN(C5COC5)CC3)OC4)cc2F)OC1 [Compound F6]	≤ 76.5	< 5 nM	> 2.5 nM	≥ 66.7	–	–
N#Cc1ccc2c(c1)COc1cc(C[C@@H](C#N)NC(=O)[C@@H]3CNCCCO3)c(F)cc1-2 [Compound B32]	76.5 to 93.9	–	–	40 to 66.7	5 to 15	1 to 2.5
CCN1C(=O)Cc2ccc(-c3ccc(C[C@@H](C#N)NC(=O)[C@@H]4CN[C@@H](C)[C@@H](O)CO4)cc3)cc21 [Compound G9]	≤ 76.5	> 15 nM	> 2.5 nM	≤ 40	–	–
N#C[C@H](Cc1cc2c(cc1F)-c1cc3c(cc1CO2)COC31CCN(C2COC2)CC1)NC(=O)[C@@H]1CNCCCO1 [Compound C31]	≤ 76.5	< 5 nM	> 2.5 nM	≥ 66.7	–	–
Cc1ncc(C)n2cc(-c3ccc(C[C@@H](C#N)NC(=O)[C@@H]4CNCCCCO4)cc3)cc12 [Compound A137]	76.5 to 93.9	> 15 nM	1 to 2.5 nM	≤ 40	–	–
Cc1nc(C)c2cc(-c3ccc(C[C@@H](C#N)NC(=O)[C@@H]4CNCCCCO4)cc3)cn2c1C [Compound A138]	76.5 to 93.9	> 15 nM	< 1 nM	≤ 40	–	–
C[C@@H]1NC[C@@H](C(=O)N[C@H](C#N)Cc2ccc(-c3ccc4c(n3)CCCN4)cc2)OC[C@@H]1O [Compound A105]	≤ 76.5	> 15 nM	> 2.5 nM	≤ 40	–	–
C[C@@H]1NC[C@@H](C(=O)N[C@H](C#N)Cc2ccc(-c3cnc4c(n3)CCCC4)cc2F)OC[C@@H]1O [Compound A109]	≤ 76.5	5 to 15 nM and < 5 nM	> 2.5 nM and 1 to 2.5 nM	40 to 66.7	–	–
CN1CCC(N2CC[C@]3(COCc4ccc(-c5ccc(C[C@@H](C#N)NC(=O)[C@@H]6CNCCCO6)cc5)cc43)C2)CC1 [Compound I8]	≤ 76.5	5 to 15 nM	> 2.5 nM	≥ 66.7	–	–
CCN1C(=O)Cc2ccc(-c3ccc(C[C@@H](C#N)NC(=O)[C@@H]4CNCCCO4)c(F)c3)cc21 [Compound G12]	≤ 76.5	5 to 15 nM	> 2.5 nM and 1 to 2.5 nM	40 to 66.7	–	–
CO[C@H]1CCO[C@H](C(=O)N[C@H](C#N)Cc2ccc(-c3ccc4c(c3)C3(CCN(C5COC5)CC3)OC4)cc2F)CNC1 [Compound F5]	≤ 76.5	< 5 nM	1 to 2.5 nM	≥ 66.7	–	–
N#Cc1ccc2c(c1)CSc1cc(C[C@@H](C#N)NC(=O)[C@@H]3CNCCCCO3)c(F)cc1-2 [Compound B17]	≤ 76.5	5 to 15 nM	> 2.5 nM	40 to 66.7	–	–
COC1CNC[C@@H](C(=O)N[C@H](C#N)Cc2ccc(-c3cc4c(C)nc(C)cn4c3)cc2F)OC1 (stereo partly drawn) [Compound A88]	76.5 to 93.9	< 5 nM	1 to 2.5 nM	≥ 66.7	–	–
CCN1C(=O)Cc2ccc(-c3ccc(C[C@@H](C#N)NC(=O)[C@@H]4CNCC[C@@H](OC)CO4)c(F)c3)cc21 [Compound G2]	≤ 76.5	< 5 nM	1 to 2.5 nM	≥ 66.7	–	–
CO[C@H]1CCO[C@H](C(=O)N[C@H](C#N)Cc2ccc(-c3cc4c(C)nc(C)cn4c3)cc2)CNC1 [Compound A92]	≤ 76.5	> 15 nM	> 2.5 nM and 1 to 2.5 nM	≤ 40	–	–
CCN1C(=O)Cc2ccc(-c3ccc(C[C@@H](C#N)NC(=O)[C@@H]4CN[C@@H](C)[C@@H](O)CO4)c(F)c3)cc21 [Compound G10]	≤ 76.5	5 to 15 nM	> 2.5 nM	40 to 66.7	–	–
Cn1c(=O)oc2ccc3c(c21)COc1cc(CC(C#N)NC(=O)[C@@H]2CNCCCO2)c(F)cc1-3 (stereo partly drawn) [Compound C29]	≤ 76.5	> 15 nM	> 2.5 nM and 1 to 2.5 nM	≤ 40	–	–
CCN1C(=O)Cc2ccc(-c3ccc(C[C@@H](C#N)NC(=O)[C@@H]4CNCCCO4)cc3)cc21 [Compound G11]	≤ 76.5	> 15 nM	> 2.5 nM	≤ 40	–	–
COC1CNC[C@@H](C(=O)N[C@H](C#N)Cc2ccc(-c3ccc4cnn(C)c4c3)cc2)OC1 (stereo partly drawn) [Compound H11]	76.5 to 93.9	–	–	≥ 66.7	–	–
